Key:
[1] = target: T1, human TREX1 (Homo sapiens, UniProt Q9NSU2); assay: hTREX1 Biochemical Assay (fluorescence, dsDNA substrate degradation); conditions: full length human TREX1, 4 h pre-incubation, 18 h reaction at 25° C.
T1 construct: N-terminally His-Tev tagged full length human TREX1; made in house; host or cells: E. coli
T1 sequence (Q9NSU2 1-314): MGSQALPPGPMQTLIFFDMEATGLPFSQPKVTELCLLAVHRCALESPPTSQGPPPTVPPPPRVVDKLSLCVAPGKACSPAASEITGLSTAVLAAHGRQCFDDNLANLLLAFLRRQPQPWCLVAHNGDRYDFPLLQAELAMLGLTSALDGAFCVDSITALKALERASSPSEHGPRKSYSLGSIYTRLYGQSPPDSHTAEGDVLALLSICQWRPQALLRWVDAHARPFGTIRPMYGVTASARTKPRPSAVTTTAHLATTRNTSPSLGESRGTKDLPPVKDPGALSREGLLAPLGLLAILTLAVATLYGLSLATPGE
Outline: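 His-Tev-tagged full-length E. coli-expressed enzyme (4 pM final) preincubated with compound 4 h at 25° C., then 60 nM quenched-fluorophore dsDNA added in Tris pH 7.4, 5 mM MgCl2, 1% DMSO. After 18 h at 25° C., EDTA-quenched; fluorescence 615 nm (ex 570 nm); IC50 from four-parameter fit versus EDTA and no-inhibitor controls.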

[2] = target: T1, human TREX1; assay: TREX1 kinetics assays (TR-FRET association and dissociation with biotinylated probe); type: binding; conditions: for koff / kon: hTREX1, 25° C., global fit Kintek Explorer; for Kd / residence time: hTREX1, kinetic data
Experimental: Compound binding kinetics were assessed using a pair of TR-FRET assays which measure the proportion of protein bound to a biotinylated TREX1 inhibitor (“probe”).
N-terminally His-Tev tagged full length human TREX1 (expressed in E. coli and purified in house), complexed with Eu-W 1024-anti-6×His (“Eu”; PerkinElmer) in reaction buffer (50 mM Tris, 150 mM NaCl, 2 mM DTT, 0.1 mg/mL BSA, 0.01% (w/v) Tween-20, 5 mM MgCl2, pH 7.4) was combined with an equal volume of test compound in reaction buffer and incubated at 25° C. Concentrations at this stage were 1 nM TREX1/Eu complex, and four concentrations of compound (diluted from 10 mM stocks in 100% DMSO). At defined time points, 18 μL of this mixture was withdrawn and combined with 2 p L probe to a final concentration of 1 μM probe. After incubating for 30 seconds, 18 μL was withdrawn and combined with 2 μL streptavidin-allophycocyanin (“SA-APC”; PerkinElmer) to a final concentration of 1.5 μM SA-APC. Fifteen μL of this mixture was then immediately transferred to a 384-well Black ProxiPlate Plus (PerkinElmer) and read in an EnVision plate reader (PerkinElmer) measuring fluorescence at 615 nm and 665 nm following excitation w/337 nm laser light. Final concentrations were 0.8 nM TREX1/Eu complex, 0.9 μM probe, and 1.5 μM SA-APC.
N-terminally His-Tev tagged full length human TREX1 (expressed in E. coli and purified in house), complexed with Eu-W1024-anti-6×His (“Eu”; PerkinElmer) in reaction buffer (50 mM Tris, 150 mM NaCl, 2 mM DTT, 0.1 mg/mL BSA, 0.01% (w/v) Tween-20, 5 mM MgCl2, pH 7.4) was combined with an equal volume of test compound in reaction buffer. Concentrations at this stage were 100 nM TREX1/Eu complex and 100 nM test compound (diluted from 10 mM stocks in 100% DMSO). Following an equilibration period of at least an hour at 25° C., this mixture was diluted 100-fold into reaction buffer containing 1 μM probe, and incubated at 25° C. At defined time points, 36 μL of the reaction mixture was withdrawn and combined with 4 μL streptavidin-allophycocyanin (“SA-APC”; PerkinElmer) to a final concentration of 1.5 μM SA-APC. Fifteen μL of this mixture was then immediately transferred to duplicate wells of a 384-well Black ProxiPlate Plus (PerkinElmer) and read in an EnVision plate reader (PerkinElmer) measuring fluorescence at 615 nm and 665 nm following excitation w/ 337 nm laser light.
The TR-FRET signal, a ratio of 665 nm/615 nm emitted light, was converted to fraction enzyme bound to test compound by normalizing to low signal (no enzyme or test compound) and high signal (no test compound) controls. Data from both association and dissociation experiments were fitted globally using Kintek Explorer software, which computes the rate constants directly.

| IC50 [1] | koff [2] | kon [2] | Kd [2] | residence time [2] | Structure (SMILES) |
| --- | --- | --- | --- | --- | --- |
| 1 to 10 nM |  |  |  |  | C[C@H](c1nc(C(=O)Nc2cnoc2)c(O)c(=O)n1C)[C@H](c1ccccc1)c1ccccc1C(F)(F)F (single isomer, unassigned) [Example 14 Isomer 2, 5-Hydroxy-N-(isoxazol-4-yl)-1-methyl-6-oxo-2-(1-phenyl-1-(2-(trifluoromethyl)phenyl)propan-2-yl)-1,6-dihydropyrimidine-4-carboxamide] |
| > 100 nM |  |  |  |  | CC(c1nc(C(=O)Nc2cnoc2)c(O)c(=O)n1C)C(c1ccccc1)c1ccccc1 (single isomer, unassigned) [Example 1 Isomer 1, 2-(1,1-diphenylpropan-2-yl)-5-hydroxy-N-(isoxazol-4-yl)-1-methyl-6-oxo-1,6-dihydro pyrimidine-4-carboxamide] |
| 1 to 10 nM | 0.000192 s⁻¹ | 50300 M⁻¹ s⁻¹ | 3.8 nM | 87 min | CC(c1nc(C(=O)Nc2cnoc2)c(O)c(=O)n1C)C(c1ccccc1)c1ccccc1 (single isomer, unassigned) [Example 1 Isomer 2, 2-(1,1-diphenylpropan-2-yl)-5-hydroxy-N-(isoxazol-4-yl)-1-methyl-6-oxo-1,6-dihydro pyrimidine-4-carboxamide] |
| < 1 nM | 3.15e-05 s⁻¹ | 448000 M⁻¹ s⁻¹ | 0.07 nM | 529 min | CC(c1nc(C(=O)Nc2cnoc2)c(O)c(=O)n1C)C(c1ccccc1Cl)c1ccccc1C#N (single isomer, unassigned) [Example 10 Isomer 1] |
| < 1 nM |  |  |  |  | Cn1c([C@@H](C(c2ccccc2C#N)c2ccccc2C#N)C(F)(F)F)nc(C(=O)Nc2cnoc2)c(O)c1=O (single isomer, unassigned) [Example 21 Isomer 1, 2-(3,3-bis(2-cyanophenyl)-1,1,1-trifluoropropan-2-yl)-5-hydroxy-N-(isoxazol-4-yl)-1-methyl-6-oxo-1,6-dihydropyrimidine-4-carboxamide] |
| < 1 nM | 2.07e-05 s⁻¹ | 178000 M⁻¹ s⁻¹ | 0.116 nM | 806 min | CC(c1nc(C(=O)Nc2cnoc2)c(O)c(=O)n1C)C(c1ccccc1)c1ccc(Cl)cc1C#N (single isomer, unassigned) [Example 9 Isomer 4] |
| 10 to 100 nM |  |  |  |  | Cn1c([C@H](C(c2ccccc2)c2ccccc2)C(F)(F)F)nc(C(=O)Nc2cnoc2)c(O)c1=O (single isomer, unassigned) [Example 20 Isomer 1, 5-Hydroxy-N-(isoxazol-4-yl)-1-methyl-6-oxo-2-(1,1,1-trifluoro-3,3-diphenylpropan-2-yl)-1,6-dihydropyrimidine-4-carboxamide] |
| < 1 nM |  |  |  |  | CC(c1nc(C(=O)Nc2cnoc2)c(O)c(=O)n1C)C(c1ccccc1)c1cc(C(=O)N(C)C)ccc1C#N (single isomer, unassigned) [Example 17 Isomer 3] |
| < 1 nM | 4.17e-05 s⁻¹ | 116000 M⁻¹ s⁻¹ | 0.361 nM | 400 min | CC(c1nc(C(=O)Nc2cnoc2)c(O)c(=O)n1C)C(c1ccccc1)c1cc(Cl)ccc1C#N (single isomer, unassigned) [Example 8 Isomer 2] |
| < 1 nM | 3.83e-05 s⁻¹ | 907000 M⁻¹ s⁻¹ | 0.042 nM | 435 min | CC(c1nc(C(=O)Nc2cnoc2)c(O)c(=O)n1C)C(c1ccccc1C#N)c1ccccc1C#N (single isomer, unassigned) [Example 4 Isomer 2] |
| < 1 nM | 3.6e-05 s⁻¹ | 164000 M⁻¹ s⁻¹ | 0.219 nM | 463 min | CC(c1nc(C(=O)Nc2cnoc2)c(O)c(=O)n1C)C(c1ccccc1)c1ccccc1C#N (single isomer, unassigned) [Example 3 Isomer 4] |
| < 1 nM | 5.48e-05 s⁻¹ | 159000 M⁻¹ s⁻¹ | 0.345 nM | 304 min | C[C@H](c1nc(C(=O)Nc2cnoc2)c(O)c(=O)n1C)[C@H](c1ccccc1)c1ccccc1Cl (single isomer, unassigned) [Example 2 Isomer 3, 2-(1-(2-chlorophenyl)-1-phenylpropan-2-yl)-5-hydroxy-N-(isoxazol-4-yl)-1-methyl-6-oxo-1,6-dihydropyrimidine-4-carboxamide] |
| < 1 nM | 1.92e-05 s⁻¹ | 257000 M⁻¹ s⁻¹ | 0.075 nM | 870 min | CC(c1nc(C(=O)Nc2cnoc2)c(O)c(=O)n1C)C(c1cc(F)cc(F)c1)c1ccccc1C#N (single isomer, unassigned) [Example 11 Isomer 3] |
| < 1 nM | 3.37e-05 s⁻¹ | 173000 M⁻¹ s⁻¹ | 0.194 nM | 495 min | CC(c1nc(C(=O)Nc2cnoc2)c(O)c(=O)n1C)C(c1ccccc1)c1cc(F)ccc1C#N (single isomer, unassigned) [Example 6 Isomer 4] |
| < 1 nM | 4.77e-05 s⁻¹ | 260000 M⁻¹ s⁻¹ | 0.183 nM | 350 min | C[C@H](c1nc(C(=O)Nc2cnoc2)c(O)c(=O)n1C)C(c1ccccc1Cl)c1ccccc1Cl (single isomer, unassigned) [Example 15 Isomer 1, 2-(1,1-bis(2-chlorophenyl)propan-2-yl)-5-hydroxy-N-(isooxazol-4-yl)-1-methyl-6-oxo-1,6-dihydropyrimidine-4-carboxamide] |

Reference: patent US20240262814A1, “MODULATORS OF TREX1” (Constellation Pharmaceuticals, Inc., priority 2021, published 2024)
